The results in this text go back to patent US20070179143A1 (priority 2003, published 2007).

Each structure is given as a SMILES string.

Test [1] concerns HCT-15. In words: Cytotoxicity test to cancer cell lines (SRB method), HCT-15. To be noted: Homo sapiens, HCT-15, 48 h, read-out: Cytotoxicity ED50 HCT15. A general note: Sulforhodamine B stains cellular protein and so reports cell mass.
In test [2] the test system is SK-OV-3. In words: Cytotoxicity test to cancer cell lines (SRB method), SK-OV-3. To be noted: Homo sapiens, SK-OV-3, 48 h, read-out: Cytotoxicity ED50 SK-OV-3. Format: cell-based.
For test [3], the system named is SK-MEL-2. In words: Cytotoxicity test to cancer cell lines (SRB method), SK-MEL-2. Type of test: cell-based. The conditions noted are these: Homo sapiens, SK-MEL-2, 48 h, read-out: Cytotoxicity ED50 SK-MEL-2.
In test [4] the test system is A549. Nature of the test: Cytotoxicity test to cancer cell lines (SRB method), A549. To be noted: Homo sapiens, A549, 48 h, read-out: Cytotoxicity ED50 A549.
Description: Cytotoxicity to A549 (Korea Research Institute of Chemical Technology), SK-OV-3 (Korea Research Institute of Chemical Technology), SK-MEL-2 (Korea Research Institute of Chemical Technology), HCT-15 (Korea Research Institute of Chemical Technology) and MCF7 (Korean Cell Line Bank, Seoul National University School of medicine) cells was measured by Sulforhodamin-B (SRB) method (1989, National Cancer Institute (NCI)) which was developed for the measurement of in vitro anticancer activity of a drug. Cells were separated using 0.25% trypsin-EDTA solution, leading to the preparation of a cell suspension by 5×10^318 2×10^4 cells/well. Then, the suspension was distributed into a 96 well plate by 100 μl/well, which was cultured in a 37° C., 5% CO2 incubator for 24 hours. Compounds prepared in examples of the present invention were used as a sample. Precisely, the compound was dissolved in dimethylsulfoxide and diluted with RPMI 1640 medium before being used as a sample. The final concentration of the sample used varied ranging 1 μM˜0.00001 μM. The medium was removed from the 96 well plate and then diluted sample solution was added by 100 μl/well, followed by further culture in a 37° C., 5% CO2 incubator for 48 hours. Tz (time zero) plate was collected from the point of adding the sample. Upon completing the culture, the medium was removed from each well along with Tz plate, then 10% trichloroacetic acid (TCA) was added by 100 μl/well. The plate was left at 4° C. for 1 hour to let cells be fixed on the floor of the plate. After cells were fixed completely, the plate was washed with water 5-6 times to remove the remaining trichloroacetic acid solution completely and moisture was completely dried at room temperature. 0.4% Sulforhodamine-B was dissolved in 1% acetic acid solution to prepare a staining solution. Cells were stained for 30 minutes with a dye added by 100 μl to each well of the completely dried plate. Then, the plate was washed with 1% acetic acid solution 5-6 times to remove sulforhodamine-B remained uncombined with cells. Then, the plate was dried at room temperature. 10 mM Tris solution was added by 100 μ/well thereto to dissolve the dye, and optical density (OD) was measured at 520 nm with a micro plate reader.
ED50 (concentration that inhibits cancer cell growth 50%, 5.0% effective dose, nM/ml) of the sample to cancer cell was calculated as follows. OD value at the point of beginning the culture with the sample was determined as Tz (time zero) value. OD value of a well to be cultured without the sample was determined as a control value (C). OD value of a well pretreated with the sample was determined as experimental value (T). After calculating Tz, C and T, cytotoxicity of the sample was measured by the below <Mathematical Formula 1>. T≦Tz, (T−Tz)/(C−Tz)×100 T>Tz, (T−Tz)/Tz×10,0 <Mathematical Formula 1>
ED50, the concentration that can inhibit cancer cell growth by 50%, was calculated by using a regression analysis of lotus program based on the degree of cytotoxicity obtained by the <Mathematical Formula 1>.

Regarding `COc1cc2c(c(OC)c1OC)-c1ccc(SC)c(=O)cc1[C@@H](NC(=O)c1ccc(CO[N+](=O)[O-])nc1)CC2` [Example 1, 6-nitrooxymethyl-N-[(7S)-1,2,3-trimethoxy-10-methylsulfanyl-9-oxo-5,6,7,9-tetrahydro-benzo[a]heptalen-7-yl]-nicotineamide], the EC50 turned out to be 0.6 nM in test [1], 1 nM in test [2], 0.4 nM in test [3] and 1.8 nM in test [4].

Consider `COc1cc2c(c(OC)c1OC)-c1ccc(SC)c(=O)cc1[C@@H](NC(=O)c1cccc(CO[N+](=O)[O-])n1)CC2` [Example 5, 6-nitrooxymethyl-pyridine-2-carboxylic acid-[(7S)-1,2,3-trimethoxy-10-methylsulfanyl-9-oxo-5,6,7,9-tetrahydro-benzo[a]heptalen-7-yl]-amide], for which the EC50 stood at 4.4 nM in test [1], 1 nM in test [2], 3.1 nM in test [3] and 1 nM in test [4].

In the case of `COc1cc2c(c(OC)c1OC)-c1ccc(SC)c(=O)cc1[C@@H](NC(=O)c1ccc(F)c(CO[N+](=O)[O-])c1)CC2` [Example 16, 4-fluoro-3-nitrooxymethyl-N-[(7S)-1,2,3-trimethoxy-10-methylsulfanyl-9-oxo-5,6,7,9-tetrahydro-benzo[a]heptalen-7-yl]-benzamide], the EC50 was 1 nM in test [1], 1 nM in test [2], 1 nM in test [3] and 1.6 nM in test [4].

As to `COc1cc2c(c(OC)c1OC)-c1ccc(SC)c(=O)cc1[C@@H](NC(=O)c1cc(O)cc(CO[N+](=O)[O-])c1)CC2` [Example 18, 3-hydroxy-5-nitrooxymethyl-N-[(7S)-1,2,3-trimethoxy-10-methylsulfanyl-9-oxo-5,6,7,9-tetrahydro-benzo[a]heptalen-7-yl]-benzamide], the EC50 in test [1] came out at 5.3 nM; in test [2] it was 3.8 nM; in test [3], 1 nM; in test [4], 8.1 nM.

With `COc1cc2c(c(OC)c1OC)-c1ccc(SC)c(=O)cc1[C@@H](NC(=O)c1ccc(COC(=O)c3cccc(O[N+](=O)[O-])c3)nc1)CC2` [Example 25, 3-nitrooxy-benzoic acid-5-[(7S)-1,2,3-trimethoxy-10-methylsulfanyl-9-oxo-5,6,7,9-tetrahydro-benzo[a]heptalen-7-yl-carbamoyl]-pyridine-2-yl-methylester], the EC50 in test [1] worked out at 15 nM; in test [2], 5.4 nM; in test [3], 14 nM; in test [4], 8.8 nM.

On to `COc1cc2c(c(OC)c1OC)-c1ccc(SC)c(=O)cc1[C@@H](NC(=O)c1ccc(COC(=O)CCCO[N+](=O)[O-])nc1)CC2` [Example 26, 4-nitrooxybutyric acid-5-[(7S)-1,2,3-trimethoxy-10-methylsulfanyl-9-oxo-5,6,7,9-tetrahydro-benzo[a]heptalen-7-yl-carbamoyl]-pyridine-2-yl-methylester], for which the EC50 in test [1] is above 50 nM; in test [2], above 50 nM; in test [3] it was 47 nM; in test [4], 21 nM.

`COc1cc2c(c(OC)c1OC)-c1ccc(SC)c(=O)cc1[C@@H](NC(=O)c1cccc(COC(=O)c3cccc(CO[N+](=O)[O-])c3)n1)CC2` [Example 27, 3-nitrooxymethyl-benzoicacid-6-[(7S) -1,2,3-trimethoxy-10-methylsulfanyl-9-oxo-5,6,7,9-tetrahydro-benzo[a]heptalen-7-yl-carbamoyl]-pyridine-2-yl-methylester]: the EC50 was determined as 2 nM in test [1], 16 nM in test [2], 7 nM in test [3] and 5 nM in test [4].

With `COc1cc2c(c(OC)c1OC)-c1ccc(SC)c(=O)cc1[C@@H](NC(=O)c1cccc(COC(=O)CCCO[N+](=O)[O-])n1)CC2` [Example 28, 4-nitrooxybutyric acid-6-[(7S)-1,2,3-trimethoxy-10-methylsulfanyl-9-oxo-5,6,7,9-tetrahydro-benzo[a]heptalen-7-yl-carbamoyl]-pyridine-2-yl-methylester], the EC50 in test [1] stood at 3 nM; in test [2] it was 15 nM; in test [3], 4 nM; in test [4], 6 nM.
